Results: US6586631B1, “Acetoacetarylamides” (Lonza, Ltd., priority 1998, dated 2003)
One block for each compound: values may come before it.

Experiment: Time to dissolve in 0.5 M aqueous sodium hydroxide solution at 20° C.
Assay type: physicochemical
Description: The novel acetoacetarylamides dissolve in a 0.5 N sodium hydroxide solution at 20° C. in from approximately half to one third of the time required by a dried acetoacetarylide prepared according to the prior art.
Water was introduced into a 1.5 l bench stirrer and adjusted to a temperature of 20° C. The stirrer was then rendered inert using nitrogen. Using two pumps, 133 g of aniline and 124 g of diketene were metered in over the course of 10 minutes. The addition of aniline was delayed by about 30 sec. At the end of the metered addition, the reaction temperature increased to 65° to 70° C. The mixture was then allowed to react for a further 30 minutes, and the reaction temperature dropped to 60° C. Vacuum cooling (450 to 120 mbar) was used to cool the mixture to 40° C., and the liquid acetoacetanilide began to crystallize, as a result of which the temperature immediately rose to about 58° C. The mixture was then cooled to 15° C. At 15° C., the solid product was centrifuged off, washed with 50 ml of water and dried at 50° C. under reduced pressure for 12 h. This method gave acetoacetanilide having a content of >99.5 percent (with a residual moisture content of <0.1 percent). The yield in terms of aniline was 97.1 percent, and in terms of diketene was 92.0 percent. A crystalline product having an average particle size of 450 to 500 μm was obtained. 50 g of the resulting acetoacetanilide (dry, 99.5 percent, water content <0.1 percent) dissolved completely at 20° C. in 500 ml of a 0.5 M aqueous sodium hydroxide solution in 25 minutes.
This gave white flakes having an average thickness of 0.08 mm and an average diameter of from 0.5 mm to […]. 55.6 g of the resulting acetoacetanilide (moist, content of acetoacetanilide 89.5 percent, water content 10 percent) dissolved completely at 20° C. in 500 ml of a 0.5 M aqueous sodium hydroxide solution in about 15 minutes.

[1] = 55.6 g (moist, content 89.5 percent, water content 10 percent) in 500 ml of 0.5 M aqueous sodium hydroxide solution
[2] = 60 g moist pastilles in 500 ml of 0.5 M aqueous sodium hydroxide solution
[3] = 60 g moist pastilles in 700 ml of 0.5 M aqueous sodium hydroxide solution

Compound: CC(=O)CC(=O)Nc1ccccc1 [Example 1, Acetoacetanilide, reference compound]
- time to dissolve completely (50 g (dry, 99.5 percent, water content <0.1 percent) in 500 ml of 0.5 M aqueous sodium hydroxide solution): 25 min

Compound: CC(=O)CC(=O)Nc1ccccc1 [Example 4, Acetoacetanilide]
- time to dissolve completely [1]: about 15 minutes

Compound: CC(=O)CC(=O)Nc1ccccc1 [Example 5, Acetoacetanilide]
- time to dissolve completely [1]: about 17 minutes

Compound: CC(=O)CC(=O)Nc1ccc(C)cc1C [Example 9, m-acetoacetoxylidide]
- time to dissolve [3]: about 18 minutes

Now from value to compound:

- time to dissolve completely [1]: about 17 minutes
Compound: CC(=O)CC(=O)Nc1ccccc1 [Example 6, Acetoacetanilide]

- time to dissolve [2]: about 20 minutes
Compound: COc1ccccc1NC(=O)CC(C)=O [Example 7, o-acetoacetanisidide]

- time to dissolve [3]: about 19 minutes
Compound: CC(=O)CC(=O)Nc1ccccc1C [Example 8, o-acetoacetotoluidide]

- time to dissolve [2]: about 18 minutes
Compound: CC(=O)CC(=O)Nc1ccccc1Cl [Example 10, o-Acetoacetochloroanilide]
